Experimental data taken from publication PMC9871744 (Cellular and Molecular Gastroenterology and Hepatology, 2022).
Values joined by “and” are separate entries in the source; they are usually repeats but may differ in a detail not shown here. Identical values can stand only once.

Assay: Pharmacokinetics and detection in blood by LC-MS
Assay type: in vivo, mice
[1] = bicompartmental model (Monolix), mice i.v.

Structure (SMILES): CCCCC/C=C\C/C=C\CCCCCCCCP(=O)(OCC)OCC [NKS-3, diethyl (9Z,12Z)-octadeca-9,12-dien-1-ylphosphonate]
- Intercompartmental clearance, population pharmacokinetic estimation mean [1]: 0.739 L/h
- Proportional residual error, population pharmacokinetic model [1]: 1.89%
- Volume of central compartment, population pharmacokinetic estimation mean [1]: 0.0634 L
- Volume of peripheral compartment, population pharmacokinetic estimation mean [1]: 2.24 L
- detection in blood circulation after intravenous injections (LC-MS) (mice): could be detected
- AUClast as share of the total exposure (mice, intravenous 10 mg/kg): about 80%
- AUClast (mice, intravenous 10 mg/kg body weight, NCA (AUC0–6 h), 10 mg/kg): 59.94 ± 12.09 mg/kg/Lxh
- Tmax (mouse, plasma, iv, 10 mg/kg): 5 min
- Vd (mouse, plasma, iv, 10 mg/kg): 1.23 ± 0.279 L/kg
- clearance (mouse, plasma, iv, 10 mg/kg): 2.82 mL/min/kg and 3.37 mL/min
- half-life (mouse, plasma, iv, 10 mg/kg): 4 h
- AUC(0-t) (mouse, plasma, iv, 10 mg/kg, AUClast, mice, intravenous 10 mg/kg body weight, NCA (AUC0–6 h)): ~60000 ng·h/mL
- Cmax (mouse, plasma, iv, 10 mg/kg, mice, dose of 10 mg/kg body weight): ~48000 ng/mL
- Cmax (mouse, plasma, iv, 10 mg/kg, mice, intravenous 10 mg/kg body weight, NCA, means ± SEM, five mice): 46700 ± 15300 ng/mL
